From US7820670B2 (Alcon Research, Ltd., priority 2006, dated 2010)
Counter-ions that a name gives are not always drawn. Like-named read-outs stand apart in the source and are kept apart here.

Legend:
[1] = target: T1, ROCK 2 (Homo sapiens, UniProt O75116); assay: Rho kinase assay (IMAP ROCK-II kit, fluorescence polarization); format: biochemical
T1 construct: purchased Molecular Devices, Sunnyvale, Calif
Protocol: (§1) The rho kinase assays were performed using a Biomek 2000 Robotic Workstation (Beckman Instruments, Palo Alto, Calif.) in a 96-well plate format. The assay was performed utilizing the IMAP ROCK-I and ROCK-II kits (Molecular Devices, Sunnyvale, Calif.) as follows. […] The substrate, enzyme, and ATP dilutions were made with the reaction buffer provided by the vendor. Test compounds were diluted in 10:10 DMSO-ethanol (vol/vol). For the actual assay, the various components were added into black, clear bottom, 96-well plates (Costar, Corning, N.Y.) in a final volume of 20μl per well. After the enzyme reaction (60 min at 23° C.), 60 μl of the binding solution was added per well and incubated for an additional 30 minutes in the dark at 23° C. Fluorescence polarization of the reaction mixtures was then measured on the Analyst™ HT instrument (Molecular Devices, Sunnyvale, Calif.).

[2] = target: ROCK 1 (Homo sapiens, UniProt Q13464); assay: Rho kinase assay (IMAP ROCK-I kit, fluorescence polarization)
ROCK 1, sequence (Q13464 whole entry, species assumed): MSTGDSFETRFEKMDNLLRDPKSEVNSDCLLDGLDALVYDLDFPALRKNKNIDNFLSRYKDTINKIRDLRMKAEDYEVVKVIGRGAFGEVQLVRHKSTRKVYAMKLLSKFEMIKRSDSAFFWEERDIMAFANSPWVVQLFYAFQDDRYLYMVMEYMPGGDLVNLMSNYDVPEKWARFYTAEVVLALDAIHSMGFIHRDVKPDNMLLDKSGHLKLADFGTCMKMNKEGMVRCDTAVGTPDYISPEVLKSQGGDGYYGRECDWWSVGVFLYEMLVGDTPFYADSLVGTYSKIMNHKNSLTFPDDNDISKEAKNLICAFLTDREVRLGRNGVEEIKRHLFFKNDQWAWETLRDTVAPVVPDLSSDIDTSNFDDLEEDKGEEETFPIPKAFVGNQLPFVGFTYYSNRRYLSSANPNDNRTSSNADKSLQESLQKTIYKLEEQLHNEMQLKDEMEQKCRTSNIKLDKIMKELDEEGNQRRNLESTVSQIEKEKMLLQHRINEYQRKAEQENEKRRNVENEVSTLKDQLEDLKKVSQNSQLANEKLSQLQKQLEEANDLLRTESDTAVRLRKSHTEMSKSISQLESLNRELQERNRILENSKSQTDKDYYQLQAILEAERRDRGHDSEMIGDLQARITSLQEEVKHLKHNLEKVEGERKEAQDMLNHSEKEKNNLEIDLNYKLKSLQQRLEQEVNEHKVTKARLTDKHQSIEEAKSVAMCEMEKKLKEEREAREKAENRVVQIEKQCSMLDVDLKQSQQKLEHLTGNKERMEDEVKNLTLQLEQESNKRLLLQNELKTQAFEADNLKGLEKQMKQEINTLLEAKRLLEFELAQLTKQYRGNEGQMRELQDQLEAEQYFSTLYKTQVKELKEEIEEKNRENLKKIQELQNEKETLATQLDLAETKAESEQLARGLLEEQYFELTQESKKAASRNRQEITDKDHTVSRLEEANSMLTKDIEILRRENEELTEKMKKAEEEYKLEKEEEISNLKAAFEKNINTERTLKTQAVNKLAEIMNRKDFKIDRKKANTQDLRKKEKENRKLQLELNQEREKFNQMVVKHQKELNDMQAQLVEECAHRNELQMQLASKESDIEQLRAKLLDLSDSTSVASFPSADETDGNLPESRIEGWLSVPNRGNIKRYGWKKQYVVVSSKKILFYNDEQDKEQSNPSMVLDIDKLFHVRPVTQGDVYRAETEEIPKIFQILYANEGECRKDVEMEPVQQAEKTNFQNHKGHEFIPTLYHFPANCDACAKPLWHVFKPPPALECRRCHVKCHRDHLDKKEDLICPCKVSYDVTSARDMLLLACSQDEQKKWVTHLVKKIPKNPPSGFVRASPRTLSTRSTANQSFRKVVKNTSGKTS
Protocol: as §1

[3] = tested on: lasered (hypertensive) eyes of conscious cynomolgus monkeys; assay: Acute IOP response in lasered (hypertensive) eyes of conscious cynomolgus monkeys; format: in vivo; conditions: 30 ug, one 30 μL aliquot topical to right eye
Protocol: Intraocular pressure (IOP) can be determined with an Alcon Pneumatonometer after light corneal anesthesia with 0.1% proparacaine. Eyes are washed with saline after each measurement. After a baseline IOP measurement, test compound is instilled in one 30 μL aliquot to the right eyes only of nine cynomolgus monkeys. Vehicle is instilled in the right eyes of six additional animals. Subsequent IOP measurements are taken at 1, 3, and 6 hours.

[4] = substrate 200 nM, ATP 10 μM, 60 min at 23° C.

T1 sequence (O75116 whole entry, species assumed): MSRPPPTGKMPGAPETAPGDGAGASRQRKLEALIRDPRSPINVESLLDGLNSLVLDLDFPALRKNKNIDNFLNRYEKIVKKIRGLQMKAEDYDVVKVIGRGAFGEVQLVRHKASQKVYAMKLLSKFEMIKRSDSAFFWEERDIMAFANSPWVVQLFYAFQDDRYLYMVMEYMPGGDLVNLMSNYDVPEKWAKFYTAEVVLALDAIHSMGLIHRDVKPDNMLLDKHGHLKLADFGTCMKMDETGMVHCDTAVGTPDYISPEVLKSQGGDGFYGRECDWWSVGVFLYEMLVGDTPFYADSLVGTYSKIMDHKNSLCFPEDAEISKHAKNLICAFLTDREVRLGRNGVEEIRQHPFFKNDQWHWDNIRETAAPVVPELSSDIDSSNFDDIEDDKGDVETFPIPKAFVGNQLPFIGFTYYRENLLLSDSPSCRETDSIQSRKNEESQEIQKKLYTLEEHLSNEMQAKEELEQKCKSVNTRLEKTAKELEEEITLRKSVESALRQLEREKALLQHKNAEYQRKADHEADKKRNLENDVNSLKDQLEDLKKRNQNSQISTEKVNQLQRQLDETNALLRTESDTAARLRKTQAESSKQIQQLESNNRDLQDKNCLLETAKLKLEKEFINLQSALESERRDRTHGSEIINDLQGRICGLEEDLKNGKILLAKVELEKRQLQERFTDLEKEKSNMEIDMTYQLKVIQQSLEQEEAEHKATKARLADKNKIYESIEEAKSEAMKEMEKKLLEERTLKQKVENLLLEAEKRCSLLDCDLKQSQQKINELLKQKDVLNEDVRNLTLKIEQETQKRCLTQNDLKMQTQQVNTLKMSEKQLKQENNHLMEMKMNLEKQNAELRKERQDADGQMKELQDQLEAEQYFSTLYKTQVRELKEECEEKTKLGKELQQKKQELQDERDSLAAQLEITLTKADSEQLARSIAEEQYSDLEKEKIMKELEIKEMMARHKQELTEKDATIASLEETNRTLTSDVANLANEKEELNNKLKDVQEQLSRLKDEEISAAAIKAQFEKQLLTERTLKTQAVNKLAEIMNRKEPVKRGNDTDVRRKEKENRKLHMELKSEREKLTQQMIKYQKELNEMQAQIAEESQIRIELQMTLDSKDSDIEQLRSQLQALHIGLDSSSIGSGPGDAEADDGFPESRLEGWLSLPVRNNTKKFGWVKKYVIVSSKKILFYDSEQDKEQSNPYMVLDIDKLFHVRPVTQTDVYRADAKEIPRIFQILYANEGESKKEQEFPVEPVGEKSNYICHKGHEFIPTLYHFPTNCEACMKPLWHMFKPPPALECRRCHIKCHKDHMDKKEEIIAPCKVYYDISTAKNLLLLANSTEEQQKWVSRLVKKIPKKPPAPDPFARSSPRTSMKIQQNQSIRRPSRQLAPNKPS

Compound | IC50 [2] [µM] | IC50 [1, 4] [µM] | further results
CCCC/C=C/c1cnc2ccc(NCCCN3CCCC3)nn12 [Example 47, (E)-3-(Hex-1-enyl)-N-(3-(pyrrolidin-1-yl)propyl)imidazo[1,2-b]pyridazin-6-amine dihydrochloride] | 59 | – | IC50 [1]: 38 µM
CCCC/C=C/c1cnc2ccc(NCCCN)nn12 [Example 48, (E)-N^1-(3-(Hex-1-enyl)imidazo[1,2-b]pyridazin-6-yl)propane-1,3-diamine] | 57 | 58 | –
CCCC/C=C/c1cnc2ccc(N[C@H]3CC[C@H](O)CC3)nn12 [Example 49, Anti-(E)-4-(3-(Hex-1-enyl)imidazo[1,2-b]pyridazin-6-ylamino)cyclohexanol] | 13 | 29 | –
CCCC/C=C/c1cnc2ccc(N[C@H]3CC[C@@H](O)CC3)nn12 [Example 50, Syn-(E)-4-(3-(Hex-1-enyl)imidazo[1,2-b]pyridazin-6-ylamino)cyclohexanol hydrochloride] | 6 | 17 | –
c1cc2[nH]ncc2cc1-c1cnc2ccc(N3CCNCC3)nn12 [Example 51, 3-(1H-Indazol-5-yl)-6-piperazin-1-yl-imidazo[1,2-b]pyridazine dihydrochloride] | 0.12 | 0.0035 | –
Cc1n[nH]c2ccc(-c3cnc4ccc(N5CCNCC5)nn34)cc12 [Example 52, 3-(3-Methyl-1H-indazol-5-yl)-6-piperazin-1-yl-imidazo[1,2-b]pyridazine trihydrochloride] | 0.027 | 0.014 | –
Cc1n[nH]c2ccc(-c3cnc4ccc(NC5CCCNC5)nn34)cc12 (stereo not drawn) [Example 53, [3-(3-methyl-1H-indazol-5-yl)-imidazo[1,2-b]pyridazine-6-yl]-piperidin-3-yl-amine trihydrochloride] | 0.082 | 0.073 | –
c1cc(-c2cnc3ccc(N4CCCNCC4)nn23)ccn1 [Example 54, 6-(1,4-Diazepan-1-yl)-3-pyridin-4-yl-imidazo [1,2-b]pyridazine hydrochloride] | 0.93 | 0.33 | –
Cc1n[nH]c2ccc(-c3cnc4ccc(N5CCCNCC5)nn34)cc12 [Example 55, 3-(3-Methyl-1H-indazol-5-yl)-6-perhydro-1,4-diazepin-1-yl-imidazo[1,2-b]pyridazine trihydrochloride] | 0.0088 | 0.011 | IOP % Change ([3]; 1 hr after dosing): 1.0%; IOP Change mmHg ([3]; 1 hr after dosing): 1.0 mmHg; IOP % Change ([3]; 3 hrs after dosing): −21.6%; IOP Change mmHg ([3]; 3 hrs after dosing): −8.7 mmHg; IOP % Change ([3]; 6 hrs after dosing): −22.0%; IOP Change mmHg ([3]; 6 hrs after dosing): −8.9 mmHg
c1n[nH]cc1-c1cnc2ccc(N3CCCNCC3)nn12 [Example 56, 6-Perhydro-1,4-diazepin-1-yl-3-(1H-pyrazol-4-yl)-imidazo[1,2-b]pyridazine dihydrochloride] | 18 | 6.7 | –
c1cncc(-c2cnc3ccc(N4CCCNCC4)nn23)c1 [Example 57, 6-Perhydro-1,4-diazepin-1-yl-3-pyridin-3-yl-imidazo[1,2-b]pyridazine trihydrochloride] | 63 | 23 | –
NC(=O)c1ccc(-c2cnc3ccc(N4CCCNCC4)nn23)cc1 [Example 58, 4-(6-Perhydro-1,4-diazepin-1-yl-imidazo[1,2-b]pyridazin-3-yl)benzamide dihydrochloride] | 56 | – | IC50 [1]: 16 µM
